Measured values reported in the supplement of paper PMC10307832.

Columns and labels:
Assay in all cases: relative viability (nuclei count vs DMSO), 5 days (fraction); higher = more cells survive
Omipalisib = compound: COc1ncc(-c2ccc3nccc(-c4ccnnc4)c3c2)cc1NS(=O)(=O)c1ccc(F)cc1F [Omipalisib]
In short: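 Acceptance criteria were a control CV below 25% and at least one doubling per plate. Lung cancer cell lines in 1536-well plates got five library-drug doses (not always all listed) √10 apart by pinning and were left 5 days with no medium change. Viability divides treated-well nuclei by vehicle-well nuclei and is the median across plates. Nuclei were counted by MetaXpress from 4× Hoechst images.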

Omipalisib + Olaparib = compound: COc1ncc(-c2ccc3nccc(-c4ccnnc4)c3c2)cc1NS(=O)(=O)c1ccc(F)cc1F [Omipalisib] + O=C(c1cc(Cc2n[nH]c(=O)c3ccccc23)ccc1F)N1CCN(C(=O)C2CC2)CC1 [Olaparib] (partner 8 µM)
In short: (§1)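 One day after seeding in 1536-well plates, lung cancer cell lines were dosed by pin tool. Dosing was either single-drug or a fixed anchor-drug dose plus five library-drug doses (not always all listed) in √10 steps. After 5 days, nuclei were stained in one fix-and-stain step and counted on 4× images, and relative viability is the nuclei count of treated wells over that of vehicle wells, given as the median of duplicate plates.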

Omipalisib + Lapatinib = compound: COc1ncc(-c2ccc3nccc(-c4ccnnc4)c3c2)cc1NS(=O)(=O)c1ccc(F)cc1F [Omipalisib] + CS(=O)(=O)CCNCc1ccc(-c2ccc3ncnc(Nc4ccc(OCc5cccc(F)c5)c(Cl)c4)c3c2)o1 [Lapatinib] (partner 2 µM)
In short: as §1

Omipalisib + Crizotinib = compound: COc1ncc(-c2ccc3nccc(-c4ccnnc4)c3c2)cc1NS(=O)(=O)c1ccc(F)cc1F [Omipalisib] + C[C@@H](Oc1cc(-c2cnn(C3CCNCC3)c2)cnc1N)c1c(Cl)ccc(F)c1Cl [Crizotinib] (partner 1 µM)
In short: as §1

Omipalisib + Navitoclax = compound: COc1ncc(-c2ccc3nccc(-c4ccnnc4)c3c2)cc1NS(=O)(=O)c1ccc(F)cc1F [Omipalisib] + CC1(C)CCC(c2ccc(Cl)cc2)=C(CN2CCN(c3ccc(C(=O)NS(=O)(=O)c4ccc(N[C@H](CCN5CCOCC5)CSc5ccccc5)c(S(=O)(=O)C(F)(F)F)c4)cc3)CC2)C1 [Navitoclax] (partner 0.5 µM)
In short: as §1

Omipalisib + Foretinib = compound: COc1ncc(-c2ccc3nccc(-c4ccnnc4)c3c2)cc1NS(=O)(=O)c1ccc(F)cc1F [Omipalisib] + COc1cc2c(Oc3ccc(NC(=O)C4(C(=O)Nc5ccc(F)cc5)CC4)cc3F)ccnc2cc1OCCCN1CCOCC1 [Foretinib] (partner 0.25 µM)
In short: as §1

Omipalisib + Linsitinib = compound: COc1ncc(-c2ccc3nccc(-c4ccnnc4)c3c2)cc1NS(=O)(=O)c1ccc(F)cc1F [Omipalisib] + C[C@]1(O)C[C@@H](c2nc(-c3ccc4ccc(-c5ccccc5)nc4c3)c3c(N)nccn32)C1 [Linsitinib] (partner 1 µM)
In short: as §1

Omipalisib + Alpelisib = compound: COc1ncc(-c2ccc3nccc(-c4ccnnc4)c3c2)cc1NS(=O)(=O)c1ccc(F)cc1F [Omipalisib] + Cc1nc(NC(=O)N2CCC[C@H]2C(N)=O)sc1-c1ccnc(C(C)(C)C(F)(F)F)c1 [Alpelisib] (partner 2 µM)
In short: as §1

Omipalisib + Bortezomib = compound: COc1ncc(-c2ccc3nccc(-c4ccnnc4)c3c2)cc1NS(=O)(=O)c1ccc(F)cc1F [Omipalisib] + CC(C)C[C@H](NC(=O)[C@H](Cc1ccccc1)NC(=O)c1cnccn1)B(O)O [Bortezomib] (partner 0.002 µM)
In short: as §1

Omipalisib + Pictilisib = compound: COc1ncc(-c2ccc3nccc(-c4ccnnc4)c3c2)cc1NS(=O)(=O)c1ccc(F)cc1F [Omipalisib] + CS(=O)(=O)N1CCN(Cc2cc3nc(-c4cccc5[nH]ncc45)nc(N4CCOCC4)c3s2)CC1 [Pictilisib] (partner 1 µM)
In short: as §1

Omipalisib + Phenformin = compound: COc1ncc(-c2ccc3nccc(-c4ccnnc4)c3c2)cc1NS(=O)(=O)c1ccc(F)cc1F [Omipalisib] + N=C(N)NC(=N)NCCc1ccccc1 [Phenformin] (partner 250 µM)
In short: as §1

Omipalisib + Luminespib = compound: COc1ncc(-c2ccc3nccc(-c4ccnnc4)c3c2)cc1NS(=O)(=O)c1ccc(F)cc1F [Omipalisib] + CCNC(=O)c1noc(-c2cc(C(C)C)c(O)cc2O)c1-c1ccc(CN2CCOCC2)cc1 [Luminespib] (partner 0.01 µM)
In short: as §1

Omipalisib + Dasatinib = compound: COc1ncc(-c2ccc3nccc(-c4ccnnc4)c3c2)cc1NS(=O)(=O)c1ccc(F)cc1F [Omipalisib] + Cc1nc(Nc2ncc(C(=O)Nc3c(C)cccc3Cl)s2)cc(N2CCN(CCO)CC2)n1 [Dasatinib] (partner 0.075 µM)
In short: as §1

Omipalisib + Pemetrexed = compound: COc1ncc(-c2ccc3nccc(-c4ccnnc4)c3c2)cc1NS(=O)(=O)c1ccc(F)cc1F [Omipalisib] + Nc1nc2[nH]cc(CCc3ccc(C(=O)N[C@@H](CCC(=O)O)C(=O)O)cc3)c2c(=O)[nH]1 [Pemetrexed] (partner 0.2 µM)
In short: as §1

Omipalisib + OSI-027 = compound: COc1ncc(-c2ccc3nccc(-c4ccnnc4)c3c2)cc1NS(=O)(=O)c1ccc(F)cc1F [Omipalisib] + COc1cccc2cc(-c3nc([C@H]4CC[C@H](C(=O)O)CC4)n4ncnc(N)c34)[nH]c12 [OSI-027] (partner 0.5 µM)
In short: as §1

Omipalisib + AZD7762 = compound: COc1ncc(-c2ccc3nccc(-c4ccnnc4)c3c2)cc1NS(=O)(=O)c1ccc(F)cc1F [Omipalisib] + NC(=O)Nc1cc(-c2cccc(F)c2)sc1C(=O)N[C@H]1CCCNC1 [AZD7762] (partner 0.2 µM)
In short: as §1

Cell Line | relative viability (Omipalisib; 0.0003 µM) | relative viability (Omipalisib; 0.003 µM) | relative viability (Omipalisib; 0.03 µM) | relative viability (Omipalisib + Lapatinib; first compound 0.0003 µM) | relative viability (Omipalisib + Lapatinib; first compound 0.003 µM) | relative viability (Omipalisib + Lapatinib; first compound 0.03 µM) | relative viability (Omipalisib + Crizotinib; first compound 0.0003 µM) | relative viability (Omipalisib + Crizotinib; first compound 0.003 µM) | relative viability (Omipalisib + Crizotinib; first compound 0.03 µM) | relative viability (Omipalisib + Foretinib; first compound 0.0003 µM) | relative viability (Omipalisib + Foretinib; first compound 0.003 µM) | relative viability (Omipalisib + Foretinib; first compound 0.03 µM) | relative viability (Omipalisib + Linsitinib; first compound 0.0003 µM) | relative viability (Omipalisib + Linsitinib; first compound 0.003 µM) | relative viability (Omipalisib + Linsitinib; first compound 0.03 µM) | relative viability (Omipalisib + Alpelisib; first compound 0.0003 µM) | relative viability (Omipalisib + Alpelisib; first compound 0.003 µM) | relative viability (Omipalisib + Alpelisib; first compound 0.03 µM) | relative viability (Omipalisib + Bortezomib; first compound 0.0003 µM) | relative viability (Omipalisib + Bortezomib; first compound 0.003 µM) | other results
Calu-6 | 1.09 | 0.986 | 0.861 | 1.05 | 1 | 0.795 | 0.904 | 0.813 | 0.681 | 0.894 | 0.844 | 0.754 | 0.842 | 0.931 | 0.815 | 0.889 | 0.864 | 0.755 | 0.982 | 0.951 | relative viability (Omipalisib + Olaparib; first compound 0.0003 µM): 0.658; relative viability (Omipalisib + Olaparib; first compound 0.003 µM): 0.625; relative viability (Omipalisib + Olaparib; first compound 0.03 µM): 0.542; relative viability (Omipalisib + Navitoclax; first compound 0.0003 µM): 0.882; relative viability (Omipalisib + Navitoclax; first compound 0.003 µM): 0.848; relative viability (Omipalisib + Navitoclax; first compound 0.03 µM): 0.452; relative viability (Omipalisib + Bortezomib; first compound 0.03 µM): 0.865; relative viability (Omipalisib + Pictilisib; first compound 0.0003 µM): 0.996; relative viability (Omipalisib + Pictilisib; first compound 0.003 µM): 0.879; relative viability (Omipalisib + Pictilisib; first compound 0.03 µM): 0.775
NCI-H1563 | 0.87 | 0.801 | 0.577 | 0.747 | 0.848 | 0.747 | 0.698 | 0.796 | 0.609 | 0.841 | 0.806 | 0.585 | 0.844 | 0.992 | 0.77 | 0.756 | 0.841 | 0.587 | 0.756 | 0.667 | relative viability (Omipalisib + Phenformin; first compound 0.0003 µM): 0.639; relative viability (Omipalisib + Phenformin; first compound 0.003 µM): 0.579; relative viability (Omipalisib + Phenformin; first compound 0.03 µM): 0.535; relative viability (Omipalisib + Luminespib; first compound 0.0003 µM): 0.557; relative viability (Omipalisib + Luminespib; first compound 0.003 µM): 0.515; relative viability (Omipalisib + Luminespib; first compound 0.03 µM): 0.445; relative viability (Omipalisib + Dasatinib; first compound 0.0003 µM): 0.484; relative viability (Omipalisib + Dasatinib; first compound 0.003 µM): 0.442; relative viability (Omipalisib + Dasatinib; first compound 0.03 µM): 0.354; relative viability (Omipalisib + Pemetrexed; first compound 0.0003 µM): 0.714; relative viability (Omipalisib + Pemetrexed; first compound 0.003 µM): 0.616; relative viability (Omipalisib + Pemetrexed; first compound 0.03 µM): 0.462; relative viability (Omipalisib + OSI-027; first compound 0.0003 µM): 0.759; relative viability (Omipalisib + OSI-027; first compound 0.003 µM): 0.583; relative viability (Omipalisib + OSI-027; first compound 0.03 µM): 0.602; relative viability (Omipalisib + Bortezomib; first compound 0.03 µM): 0.7; relative viability (Omipalisib + Pictilisib; first compound 0.0003 µM): 0.575; relative viability (Omipalisib + Pictilisib; first compound 0.003 µM): 0.67; relative viability (Omipalisib + Pictilisib; first compound 0.03 µM): 0.694
NCI-H1299 | 1.06 | 1.1 | 1.02 | 1.01 | 0.994 | 1.02 | 0.986 | 1.03 | 0.967 | 1.13 | 1.17 | 1.12 | 0.95 | 1.01 | 0.909 | 1.12 | 1.13 | 1.06 | 1.03 | 1.08 | relative viability (Omipalisib + Olaparib; first compound 0.0003 µM): 1.05; relative viability (Omipalisib + Olaparib; first compound 0.003 µM): 1.01; relative viability (Omipalisib + Olaparib; first compound 0.03 µM): 0.902; relative viability (Omipalisib + Navitoclax; first compound 0.0003 µM): 1.09; relative viability (Omipalisib + Navitoclax; first compound 0.003 µM): 1.05; relative viability (Omipalisib + Navitoclax; first compound 0.03 µM): 1.05; relative viability (Omipalisib + Bortezomib; first compound 0.03 µM): 1.12; relative viability (Omipalisib + Pictilisib; first compound 0.0003 µM): 0.778; relative viability (Omipalisib + Pictilisib; first compound 0.003 µM): 0.612; relative viability (Omipalisib + Pictilisib; first compound 0.03 µM): 0.624
EBC-1 | 0.957 | 0.821 | 0.325 | 0.211 | 0.216 | 0.202 | 0.218 | 0.183 | 0.212 | 0.114 | 0.102 | 0.0896 | 0.822 | 0.521 | 0.405 | 0.906 | 0.692 | 0.259 | 0.605 | 0.549 | relative viability (Omipalisib + Olaparib; first compound 0.0003 µM): 0.67; relative viability (Omipalisib + Olaparib; first compound 0.003 µM): 0.57; relative viability (Omipalisib + Olaparib; first compound 0.03 µM): 0.193; relative viability (Omipalisib + Navitoclax; first compound 0.0003 µM): 0.337; relative viability (Omipalisib + Navitoclax; first compound 0.003 µM): 0.243; relative viability (Omipalisib + Navitoclax; first compound 0.03 µM): 0.137; relative viability (Omipalisib + Bortezomib; first compound 0.03 µM): 0.263; relative viability (Omipalisib + Pictilisib; first compound 0.0003 µM): 0.428; relative viability (Omipalisib + Pictilisib; first compound 0.003 µM): 0.395; relative viability (Omipalisib + Pictilisib; first compound 0.03 µM): 0.191
NCI-H1703 | 0.777 | 0.572 | 0.234 | 0.879 | 0.715 | 0.293 | 0.707 | 0.418 | 0.128 | 0.314 | 0.37 | 0.301 | 0.596 | 0.298 | 0.171 | 0.428 | 0.273 | 0.179 | 0.323 | 0.268 | relative viability (Omipalisib + Olaparib; first compound 0.0003 µM): 0.28; relative viability (Omipalisib + Olaparib; first compound 0.003 µM): 0.279; relative viability (Omipalisib + Olaparib; first compound 0.03 µM): 0.214; relative viability (Omipalisib + Navitoclax; first compound 0.0003 µM): 0.713; relative viability (Omipalisib + Navitoclax; first compound 0.003 µM): 0.651; relative viability (Omipalisib + Navitoclax; first compound 0.03 µM): 0.24; relative viability (Omipalisib + AZD7762; first compound 0.0003 µM): 0.152; relative viability (Omipalisib + AZD7762; first compound 0.003 µM): 0.115; relative viability (Omipalisib + AZD7762; first compound 0.03 µM): 0.111; relative viability (Omipalisib + Bortezomib; first compound 0.03 µM): 0.153; relative viability (Omipalisib + Pictilisib; first compound 0.0003 µM): 0.218; relative viability (Omipalisib + Pictilisib; first compound 0.003 µM): 0.238; relative viability (Omipalisib + Pictilisib; first compound 0.03 µM): 0.202
